Source: patent publication US9321722B2, “Bis-indolic derivatives, their uses in particular as antibacterials” (UNIVERSITE JOSEPH FOURIER, priority 2011, dated 2016)
≈ marks a conversion by molar mass, not a printed value.

Experiments:
S. epidermidis CIP 81.55 = test: MIC microdilution (Table I-1); assay type: cell-based, Staphylococcus epidermidis; conditions: Staphylococcus epidermidis, CIP81, read after 18 hours, read-out: MIC
Experimental: (§1) The microdilution method recommended by the Clinical and Laboratory Standard Institute [M07-A8, Vol. 29, N^o 2] was used. The activity of indolic compounds was tested against 29 bacterial strains belonging to 17 different species and 12 different genera (Staphylococcus, Streptococcus, Enterococcus, Listeria, Bacillus, Haemophilus, Escherichia, Klebsiella, Enterobacter, Serratia, Pseudomonas, and Acinetobacter). Bacterial inocula were prepared in Mueller Hinton broth (MH2, bioMerieux, Marcy L'Etoile, France), supplemented with 10% sheep blood for fastidious species (i.e., Streptococcus pneumoniae and Haemophilus influenzae). They were dispensed in 96 well microtiter plates (5×10^5 CFU/ml of final inoculum). Indolic compounds were added to the wells as to obtain two-fold serial concentrations (0.50-128 mg/L of final concentrations). Plates were incubated at 37° C. in ambient air, or at 37° C. in 5% CO2 enriched atmosphere for fastidious species. […] Drug-free cultures served as growth controls. Cultures receiving gentamicin, ciprofloxacin or cefotaxime served as positive controls.

[1] = system: S. epidermidis CIP 103627; test: MIC microdilution (Table I-1); assay type: cell-based, Staphylococcus epidermidis; conditions: Staphylococcus epidermidis, CIP103627, read after 18 hours, read-out: MIC
Experimental: as §1

[2] = system: S. epidermidis ATCC 12228; test: MIC microdilution (Table I-1); assay type: cell-based, Staphylococcus epidermidis; conditions: Staphylococcus epidermidis, ATCC12228, read after 18 hours, read-out: MIC
Experimental: as §1

S. pneumoniae ATCC 6303 = test: MIC microdilution (Table I-1); assay type: cell-based, Streptococcus pneumoniae; conditions: Streptococcus pneumoniae, ATCC6303, read after 18 hours, read-out: MIC
Experimental: as §1

[3] = system: S. aureus ATCC 33592 (MRSA); test: MIC microdilution (Table I-1); assay type: cell-based, Staphylococcus aureus; conditions: Staphylococcus aureus, read after 18 hours, read-out: MIC
Experimental: as §1

S. aureus CIP 103428 = test: MIC microdilution (Table I-1); assay type: cell-based, Staphylococcus aureus; conditions: Staphylococcus aureus, CIP103428, read after 18 hours, read-out: MIC
Experimental: as §1

S. aureus ATCC 6538 = test: MIC microdilution (Table I-1); assay type: cell-based, Staphylococcus aureus; conditions: Staphylococcus aureus, ATCC6538, read after 18 hours, read-out: MIC
Experimental: as §1

S. aureus ATCC 29213 = test: MIC microdilution (Table I-1); assay type: cell-based, Staphylococcus aureus; conditions: Staphylococcus aureus, ATCC29213, read after 18 hours, read-out: MIC
Experimental: as §1

S. aureus SA-1199B = test: MIC microdilution (Table I-1); assay type: cell-based, Staphylococcus aureus; conditions: Staphylococcus aureus, SA1199B, 18 h
Experimental: as §1

[4] = system: S. aureus CIP 65.25 (MRSA); test: MIC microdilution (Table I-1); assay type: cell-based, Staphylococcus aureus; conditions: Staphylococcus aureus, read after 18 hours, read-out: MIC
Experimental: as §1

S. aureus ATCC 9144 = test: MIC microdilution (Table I-1); assay type: cell-based, Staphylococcus aureus; conditions: Staphylococcus aureus, ATCC9144, read after 18 hours, read-out: MIC
Experimental: as §1

[5] = system: S. aureus ATCC 106414 (VISA); test: MIC microdilution (Table I-1); assay type: cell-based, Staphylococcus aureus; conditions: Staphylococcus aureus, read after 18 hours, read-out: MIC
Experimental: as §1

S. aureus CIP 65.6 = test: MIC microdilution (Table I-1); assay type: cell-based, Staphylococcus aureus; conditions: Staphylococcus aureus, CIP65, read after 18 hours, read-out: MIC
Experimental: as §1

[6] = system: Staphylococcus aureus K2378 (overexpresses the efflux pump NorA from a multicopy plasmid); test: Efflux pump inhibition assay with sub-inhibitory ciprofloxacin; assay type: cell-based
Experimental: The efflux pump inhibition potential of the bis-indolic derivatives was tested using two steps. In a first step, the intrinsic antibacterial activity of the compounds was assayed against the following strains:
The following experimental protocol was used: indolic derivatives (initially solubilised in DMSO at 10 mg/mL) were dispensed in a 96-wells microplate by two fold serial dilutions in Muller-Hinton medium (MH, Bio Rad) using a Biomek 2000 (Beckman) handling robot. 100 μL of the bacterial inoculum (an overnight culture at 37° C. in 5 mL MH diluted 100-fold) was then added in each well. The total volume was 200 μL in each well and the final bacteria concentration 10^6 CFU/mL (CFU: colony forming unit). The highest final indolic derivative concentration was 128 mg/L. Growth was assayed with a microplate reader by monitoring absorption at 620 nm after 1, 2, 5, 7 and 24 h incubation at 37° C. In addition, the plates were read visually after 24 hours incubation. Cultures containing 5 μL DMSO were used as growth controls. In addition, two controls containing a sub-inhibitory or a inhibitory antibiotic concentration for the tested strain were performed. The antibiotics used were ampicillin (0.5 and 32 μg/mL) for E. coli, kanamycin (0.5 and 16 μg/mL) for S. aureus ATCC 25923, ciprofloxacin (4 and 64 mg/L) for S. aureus 1199B, ciprofloxacin (0.5 and 2 mg/L) for S. aureus K2378. All experiments were performed in duplicate.
Efflux pump inhibition assays were then performed against resistant Staphylococcus aureus strains SA 1199B and SA K2378 for bis-indolic derivatives. […] The minimal inhibitory concentration (MIC) of the bis-indolic compound allowing a complete inhibition of the bacterial growth in the presence of ciprofloxacin was determined.

[7] = in the presence of ciprofloxacin 0.25 mg/L (MIC/8)

| SMILES | MIC (S. epidermidis CIP 81.55) [µg/mL] | MIC [1] [µg/mL] | MIC [2] [µg/mL] | MIC (S. pneumoniae ATCC 6303) [µg/mL] | MIC [3] [µg/mL] | MIC (S. aureus CIP 103428) [µg/mL] | MIC (S. aureus ATCC 6538) [µg/mL] | MIC (S. aureus ATCC 29213) [µg/mL] | MIC (S. aureus SA-1199B) [µg/mL] | MIC [4] [µg/mL] | MIC (S. aureus ATCC 9144) [µg/mL] | MIC [5] [µg/mL] | MIC (S. aureus CIP 65.6) [µg/mL] | CMI, mg/L (Ciprofloxacin concentration, mg/L) [6, 7] | CMI, mg/L (Ciprofloxacin concentration, mg/L) ([6]; in the presence of ciprofloxacin 0.5 mg/L (MIC/4)) |
| --- | --- | --- | --- | --- | --- | --- | --- | --- | --- | --- | --- | --- | --- | --- | --- |
| CC(C)(C)OC(=O)NCC(NC(=O)C(=O)c1c[nH]c2ccccc12)c1c[nH]c2ccccc12 (stereo not shown) [Compound 2, tert-Butyl(2-(2-(1H-indol-3-yl)-2-oxoacetamido)-2-(1H-indol-3-yl)ethyl)carbamate] | > 128 | > 128 | > 128 | > 128 | > 128 | > 128 | > 128 | > 128 | > 128 | > 128 | > 128 | > 128 | > 128 | – | – |
| CC(C)(C)OC(=O)NCC(NC(=O)C(=O)c1c[nH]c2ccc(Br)cc12)c1c[nH]c2ccc(Br)cc12 (stereo not shown) [Compound 4, tert-Butyl(2-(5-bromo-1H-indol-3-yl)-2-(2-(5-bromo-1H-indol-3-yl)-2-oxoacetamido)ethyl) carbamate] | 1.6 (≈ 2.65 µM) | 1.6 (≈ 2.65 µM) | 0.8 (≈ 1.32 µM) | – | 0.8 (≈ 1.32 µM) | 1.6 (≈ 2.65 µM) | 0.8 (≈ 1.32 µM) | 0.8 (≈ 1.32 µM) | 1.6 (≈ 2.65 µM) | 1.6 (≈ 2.65 µM) | 0.8 (≈ 1.32 µM) | 0.8 (≈ 1.32 µM) | 0.8 (≈ 1.32 µM) | – | – |
| CC(NC(=O)C(=O)c1c[nH]c2ccc(Br)cc12)c1c[nH]c2ccc(Br)cc12 (stereo not shown) [Compound 5, 2-(5-Bromo-1H-indol-3-yl)-N-(1-(5-bromo-1H-indol-3-yl)ethyl)-2-oxoacetamide] | 2 (≈ 4.09 µM) | 2 (≈ 4.09 µM) | 2 (≈ 4.09 µM) | 32 (≈ 65.4 µM) | 1 (≈ 2.04 µM) | 1 (≈ 2.04 µM) | 1 (≈ 2.04 µM) | 1 (≈ 2.04 µM) | 2 (≈ 4.09 µM) | 1 (≈ 2.04 µM) | 1 (≈ 2.04 µM) | 1 (≈ 2.04 µM) | 2 (≈ 4.09 µM) | – | – |
| O=C(C(=O)N1CCCCC1c1c[nH]c2ccccc12)c1c[nH]c2ccccc12 (stereo not shown) [Compound 6a, 1-(2-(1H-Indol-3-yl)piperidin-1-yl)-2-(1H-indol-3-yl)ethane-1,2-dione] | > 128 | > 128 | > 128 | > 128 | > 128 | > 128 | > 128 | > 128 | > 128 | > 128 | > 128 | > 128 | > 128 | 8 (0.25) mg/L | – |
| O=C(C(=O)N1CCOCC1c1c[nH]c2ccccc12)c1c[nH]c2ccccc12 (stereo not shown) [Compound 6b, 1-(3-(1H-Indol-3-yl)morpholino)-2-(1H-indol-3-yl)ethane-1,2-dione] | > 128 | > 128 | > 128 | > 128 | > 128 | > 128 | > 128 | > 128 | > 128 | > 128 | > 128 | > 128 | > 128 | 16 (0.25) mg/L | – |
| CC(C)(C)OC(=O)N1CCN(C(=O)C(=O)c2c[nH]c3ccccc23)C(c2c[nH]c3ccccc23)C1 (stereo not shown) [Compound 6c, tert-Butyl 4-(2-(1H-indol-3-yl)-2-oxoacetyl)-3-(1H-indol-3-yl)piperazine-1-carboxylate] | > 128 | > 128 | > 128 | > 128 | > 128 | > 128 | > 128 | > 128 | > 128 | > 128 | > 128 | > 128 | > 128 | 16 (0.25) mg/L | – |
| O=C(C(=O)N1CCCCC1c1c[nH]c2ccc(Br)cc12)c1c[nH]c2ccc(Br)cc12 (stereo not shown) [Compound 6d, 1-(5-Bromo-1H-indol-3-yl)-2-(2-(5-bromo-1H-indol-3-yl)piperidin-1-yl)ethane-1,2-dione] | > 128 | > 128 | > 128 | > 128 | > 128 | > 128 | > 128 | 2 to 4 (≈ 3.78 to 7.56 µM) | > 128 | > 128 | > 128 | > 128 | > 128 | 8 (0.25) mg/L | – |
| CC(C)(C)OC(=O)N1CCN(C(=O)C(=O)c2c[nH]c3ccc(Br)cc23)C(c2c[nH]c3ccc(Br)cc23)C1 (stereo not shown) [Compound 6f, tert-Butyl 3-(5-bromo-1H-indol-3-yl)-4-(2-(5-bromo-1H-indol-3-yl)-2-oxoacetyl) piperazine-1-carboxylate] | > 128 | > 128 | > 128 | > 128 | > 128 | > 128 | > 128 | 2 to 4 (≈ 3.17 to 6.35 µM) | > 128 | > 128 | > 128 | > 128 | > 128 | 1 (0.25) mg/L | 1 (0.5) mg/L |
